The source of these data is patent US20250295652A1, “Inhibitors of Molluscum Contagiosum Infection and Methods Using the Same” (priority 2021, published 2025).

For orientation: EC50 means the midpoint of the concentration-response curve. By IC50 is commonly meant the concentration that gives 50% inhibition. The low end stands for higher potency, the high end for lower potency. The ΔTm is the change in melting temperature against a reference sample.

Like-named read-outs stand apart in the source and are kept apart here.

One data set deals with VV. In words: microbe, parasite or virus in culture. It is filed as cell-based, vaccinia virus. Particulars: Orthopoxvirus vaccinia, BSC-1, read-out: VV EC50.
In the next data set the test system is mD4-VV surrogate virus. In words: microbe, parasite or virus in culture. It is filed as cell-based, mD4/vaccinia hybrid virus. As to conditions: Hybrid virus, BSC-1, read-out: mD4 EC50.
The target of data set [1] is E9/A20/D4 proteins (molluscum mD4) (Molluscum contagiosum virus, UniProt Q98260). As to the kind of experiment: biochemical.
E9/A20/D4 proteins (molluscum mD4), sequence (Q98260 1-226): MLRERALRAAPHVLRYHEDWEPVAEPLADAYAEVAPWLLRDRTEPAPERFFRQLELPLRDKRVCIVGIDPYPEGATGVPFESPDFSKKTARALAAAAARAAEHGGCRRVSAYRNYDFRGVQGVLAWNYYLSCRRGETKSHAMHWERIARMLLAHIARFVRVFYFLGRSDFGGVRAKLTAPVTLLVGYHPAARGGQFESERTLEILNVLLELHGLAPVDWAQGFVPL
Data set [2] concerns the target T1, D4 (Vaccinia virus, UniProt P04303, Y163F). The class given is binding. As to conditions: for thermal shift (in words): up to 50 μM.
The target in data set [3] is T1, D4. It is filed as binding. Further details: made in house; host or cells: bacterial cells (IPTG induction); purified for SPR, crude lysate for DARTS.
In data set [4] the target is T1, D4. It is filed as binding. Also noted: made in house; host or cells: bacterial cells (IPTG induction); purified for SPR, crude lysate for DARTS. The source holds these as a separate data set.
Data set [5] can be described thus: Solubility in receptor medium. As to conditions: 1×PBS/4% BSA receptor medium, typical IVPT study. The source says: For this study, human torso skin was used rather than a membrane. Initially, methods development was done to identify the receiving medium in the reservoir of the Franz cell apparatus which provided the greatest compound solubility so that percentages of full penetration would not be underestimated due to poor solubility.

For the compound `CCC(C(=O)Nc1sc(C(N)=O)c(C)c1C(=O)OC)c1ccccc1` (single isomer, unassigned) [Compound 29, Methyl 2-(2-phenylbutanamido)-5-carbamoyl-4-methylthiophene-3-carboxylate], the EC50 came to 28 µM in the data set with VV and 19.7 µM in the data set with mD4-VV surrogate virus. 13.4 µM corresponded to half-maximal inhibition in data set [1] (IC50).
Turning to `Nc1ccn(C[C@@H](CO)OCP(=O)(O)O)c(=O)n1` [CDV, 1-((3-hydroxy-2-phosphonylmethoxy)propyl)cytosine], the ΔTm on D4 [2] (25 µM) is −0.37 ± 0.14; ° C; at D4 [2] (50 µM), −0.27 ± 0.37 °C. On D4 [2], the “thermal shift (in words)” value is reported as “no thermal shifts”. The “SPR binding to D4 (in words)” value at D4 [3] is “near-baseline signals”. Besides, the “effect on D4 protein levels after Pronase proteolysis (in words)” value at D4 [4] is listed as “did not affect the protein levels of D4”.
Take `O=C(NCc1ccc(Cl)cc1)c1nnsc1NC(=O)N1CCN(c2ccccn2)CC1` [Compound 83, N-(4-chlorobenzyl)-5-(4-(pyridin-2-yl)piperazine-1-carboxamido)-1,2,3-thiadiazole-4-carboxamide]: the EC50 in the data set with VV was determined as 7.3 µM; in the data set on mD4-VV surrogate virus, 7.7 µM. Besides, the IC50 in data set [1] came to 31.4 µM.
Regarding `O=C(NCc1ccc(Cl)cc1)c1ccsc1NC(=O)N1CCN(c2ccccn2)CC1` [Compound 111, 4-Pyridin-2-yl-piperazine-1-carboxylic acid [3-(4-chloro-benzyl carbamoyl)-thiophen-2-yl]-amide], the half-maximal effective concentration (EC50) in the data set on mD4-VV surrogate virus was 7 µM. The compound further displayed an IC50 in data set [1] of 63.3 µM. Also, in data set [5], the “solubility sufficient to detect % of the applied amount” value was not above 90%.
Turning to `O=C(NCc1ccccc1)c1nnsc1NC(=O)N1CCN(c2ccccn2)CC1` [Compound 119, 4-Pyridin-2-yl-piperazine-1-carboxylic acid (4-benzylcarbamoyl-[1,2,3]thiadiazol-5-yl)-amide], in the data set on mD4-VV surrogate virus, the EC50 was found to be 10.3 µM. For the same compound, the IC50 in data set [1] was more than 100 µM.
As for `O=C(NCc1ccc(F)c(F)c1)c1ccsc1NC(=O)N1CCN(c2ccccn2)CC1` [Compound 159, N-(3-(3,4-Difluorobenzylcarbamoyl)thiophen-2-yl)-4-(pyridin-2-yl)piperazine-1-carboxamide], the concentration for a half-maximal effect (EC50) with mD4-VV surrogate virus is 12.8 µM. It took 118 µM to reach half-maximal inhibition in data set [1] (IC50).
With `CCC(C(=O)Nc1sccc1C(=O)NCc1ccc(F)c(F)c1)c1ccccc1` (centres unmarked) [Compound 160, 2-(2-Phenylbutanamido)-N-(3,4-difluorobenzyl)thiophene-3-carboxamide], in the data set on mD4-VV surrogate virus, the EC50 came to 10.6 µM. Further, the IC50 in data set [1] was determined as 128 µM.
On the same counts, the results for `CCC(C(=O)Nc1sccc1C(=O)NCc1ccccc1)c1ccccc1` (centres unmarked) [Compound 161, 2-(2-Phenylbutanamido)-N-benzylthiophene-3-carboxamide] are 12 µM and 140 µM.
For `CCC(C(=O)Nc1scnc1C(=O)NCc1ccc(Cl)cc1)c1ccccc1` (centres unmarked) [Compound 163, 5-(2-Phenylbutanamido)-N-(4-chlorobenzyl)thiazole-4-carboxamide], in the data set on mD4-VV surrogate virus, the EC50 was determined as 12.1 µM. This compound gave an IC50 in data set [1] of more than 100 µM.
For the compound `O=C(NCc1ccc(Cl)cc1)c1nnsc1NC(=O)C1CCN(c2ccccn2)CC1` [Compound 167, N-(4-(4-Chlorobenzylcarbamoyl)-1,2,3-thiadiazol-5-yl)-1-(pyridin-2-yl)piperidine-4-carboxamide], the EC50 with mD4-VV surrogate virus was 17.8 µM. Moreover, the midpoint of inhibition in data set [1], the IC50, lay at 98.6 µM.
For the compound `O=C(NCc1ccc(Cl)cc1)c1nnsc1NC(=O)N1CCN(c2ccccc2F)CC1` [Compound 168, 4-(2-Fluoro-phenyl)-piperazine-1-carboxylic acid [4-(4-chloro-benzylcarbamoyl)-[1,2,3]thiadiazol-5-yl]-amide], in the data set on mD4-VV surrogate virus, the EC50 worked out at 11.9 µM. The compound further had an IC50 in data set [1] of 26.3 µM.
Take `O=C(NCc1ccc(Cl)nc1)c1ccsc1NC(=O)N1CCN(c2ccccn2)CC1` [Compound 170, N-(3-((6-Chloropyridin-3-yl)methylcarbamoyl)thiophen-2-yl)-4-(pyridin-2-yl)piperazine-1-carboxamide]: in the data set with mD4-VV surrogate virus, the EC50 was 14.9 µM. The compound also had an IC50 in data set [1] of more than 200 µM.
Consider `COc1ccccc1CN(C)C(=O)c1ccsc1NC(=O)N1CCN(c2ccccn2)CC1` [Compound 172, N-(3-(N-(2-Methoxybenzyl)-N-methylcarbamoyl)thiophen-2-yl)-4-(pyridin-2-yl)piperazine-1-carboxamide], for which the EC50 in the data set on mD4-VV surrogate virus worked out at 22.6 µM. Moreover, in data set [1], the IC50 is 117 µM.
Take `CN(Cc1ccccc1)C(=O)c1ccsc1NC(=O)N1CCN(c2ccccn2)CC1` [Compound 173, N-(3-(N-Benzyl-N-methylcarbamoyl)thiophen-2-yl)-4-(pyridin-2-yl)piperazine-1-carboxamide]: the EC50 in the data set with mD4-VV surrogate virus amounted to 11.9 µM. Further, in data set [1], the IC50 was more than 200 µM.
On to `CCC(C(=O)Nc1sccc1C(=O)NCc1ccc(F)cc1)c1ccccc1` (centres unmarked) [Compound 179, 2-(2-Phenylbutanamido)-N-(4-fluorobenzyl)thiophene-3-carboxamide], for which, in the data set on mD4-VV surrogate virus, the EC50 turned out to be 9.5 µM. In addition, the IC50 in data set [1] was 51.3 µM.
For the compound `O=C(NCc1ccc(F)cc1)c1nnsc1NC(=O)N1CCN(c2ccccn2)CC1` [Compound 180, N-(4-(4-Fluorobenzylcarbamoyl)-1,2,3-thiadiazol-5-yl)-4-(pyridin-2-yl)piperazine-1-carboxamide], the EC50 in the data set on mD4-VV surrogate virus came out at 12.9 µM. This compound gave an IC50 in data set [1] of 39 µM.
The matching figures for `O=C(NCc1ccc(F)cc1)c1ccsc1NC(=O)N1CCN(c2ccccn2)CC1` [Compound 181, N-(3-(4-Fluorobenzylcarbamoyl)thiophen-2-yl)-4-(pyridin-2-yl)piperazine-1-carboxamide]: 16 µM and 135 µM.
On to `O=C(NCCN1CCOCC1)Nc1snnc1C(=O)NCc1ccc(F)cc1` [Compound 182, 1-(4-(4-Fluorobenzylcarbamoyl)-1,2,3-thiadiazol-5-yl)-3-(2-morpholinoethyl)urea], for which the EC50 in the data set with mD4-VV surrogate virus was 12.4 µM. In data set [1], this compound returned an IC50 of more than 100 µM.
`O=C(NCCN1CCOCC1)Nc1snnc1C(=O)NCc1ccc(Cl)cc1` [Compound 183, 1-(4-(4-Chlorobenzylcarbamoyl)-1,2,3-thiadiazol-5-yl)-3-(2-morpholinoethyl)urea]: the EC50 in the data set with mD4-VV surrogate virus was found to be 11.9 µM. Further, the IC50 in data set [1] is more than 100 µM.
As for `O=C(NCCc1ccccn1)Nc1snnc1C(=O)NCc1ccc(F)cc1` [Compound 184, 1-(4-(4-Fluorobenzylcarbamoyl)-1,2,3-thiadiazol-5-yl)-3-(2-(pyridin-2-yl)ethyl)urea], the EC50 in the data set with mD4-VV surrogate virus is 22.8 µM. 60 µM corresponded to half-maximal inhibition in data set [1] (IC50).
On the same counts, the results for `O=C(NCCc1ccccn1)Nc1snnc1C(=O)NCc1ccc(Cl)cc1` [Compound 185, 1-(4-(4-Chlorobenzylcarbamoyl)-1,2,3-thiadiazol-5-yl)-3-(2-(pyridin-2-yl)ethyl)urea] are 9.6 µM and 64.7 µM.
With `O=C(NN1C(=O)[C@@H]2[C@@H]3C=C[C@@H]([C@H]4C[C@@H]34)[C@@H]2C1=O)c1ccc(C(F)(F)F)cc1` [ST-246], the figures for the ΔTm on D4 [2] (25 µM) and at D4 [2] (50 µM) were −0.37 ± 0.08; ° C and −0.26 ± 0.10 °C, respectively. The “thermal shift (in words)” value on D4 [2] is “no thermal shifts”. Moreover, the “SPR binding to D4 (in words)” value at D4 [3] is “near-baseline signals”. Also, the “effect on D4 protein levels after Pronase proteolysis (in words)” value on D4 [4] is recorded as “did not affect the protein levels of D4”.
